Columns and labels:
[1] = cited from earlier work
[2] = Drug solubility in various carriers; format: physicochemical

solubility in carrier ([2]; 20-30% topiramate in 90/10, 80/20 or 70/30 PEG 400/Cremophor EL): completely soluble | solubility in carrier ([2]; 45% topiramate in 100% of PEG400): completely soluble
Structure (SMILES): CC1(C)O[C@@H]2[C@@H](CO[C@@]3(COS(N)(=O)=O)OC(C)(C)O[C@@H]23)O1 [topiramate, 2,3:4,5-di-O-isopropylidene-β-D-fructopyranose sulfamate]
solubility (qualitative) ([1]; alkaline solutions containing sodium hydroxide or sodium phosphate, acetone, dimethylsulfoxide and ethanol): soluble | solubility in water ([1]; in water): about 9.8 mg/ml

Source: patent publication US20050129765A1, “Controlled release of topiramate in liquid dosage forms” (priority 2003, published 2005)
